From paper doi:10.1101/2023.02.27.530254, “Large library docking for cannabinoid-1 receptor agonists with reduced side effects” (bioRxiv, 2024)
Several values for one entry are separate records, joined by “and”; a condition that tells them apart may be missing. Equal values may be shown once.

Columns and labels:
C56BL/6 mice [1] = assay: Acetone test of cold allodynia after SNI; assay type: in vivo, mouse; conditions: for effect on SNI-induced cold allodynia (number of paw withdrawals): acetone test
Experimental: Under isoflurane anesthesia, two of the three branches of the sciatic nerve were ligated and transected distally, leaving the sural nerve intact. Behavior was tested 7 to 14 days after injury.
Mice were placed on a wire mesh and thirty min after an i.p. injection of the compounds we applied a drop (50 μL) of acetone on the ventral aspect of the hindpaw, 5 times every 30 sec. We recorded the number of nocifensive behaviors (paw lifts/licks/shakes/bites) over the 5 applications.

C56BL/6 mice [2] = assay: Catalepsy test (vertical wire mesh); assay type: in vivo, mouse; conditions: for cataleptic behavior: analgesic doses (0.2 or 0.5 mg/kg), 30 minutes or 1-hour post-injection; for concentration window between anti-allodynia or analgesia versus catalepsy and sedation, maximum: depending on the nociceptive behavior
Experimental: Thirty and 60 minutes after an i.p. injection of the compounds, mice were placed on a vertical wire mesh and the latency to move all four paws was recorded.

C56BL/6 mice [3] = assay: Acute thermal pain tests (tail flick, hot plate, Hargreaves); assay type: in vivo, mouse; conditions: for tail flick latency of co-injection with morphine (3.0 mg/kg, i.p.) versus morphine alone: 0.05 and 0.1 mg/kg; for analgesic effect under CB1R knockout or AM251 (5.0 mg/kg) pre-treatment: tail flick assay; for lowest dose with significant analgesia (latencies above baseline): tail flick, hot plate and Hargreaves tests, i.p.
hCB1 [4] = molecular target: T1, hCB1 (Homo sapiens, UniProt P21554); assay: Tango β-arrestin-2 recruitment assay, HTLA cells; assay type: cell-based; parameters: expressed in transfected cells; conditions: for Emax: HTLA, read-out: hCB1 Tango ß-arrestin recruitment Emax [95% CI]
Experimental: (§1) The Tango β-arrestin-2 recruitment assays were performed as described. In brief, HTLA cells were transiently transfected with human CB1R or CB2R Tango DNA construct overnight in DMEM supplemented with 10 % FBS, 100 μg ml−1 streptomycin and 100 U ml−1 penicillin. The transfected cells were then plated into poly-L-lysine-coated 384-well white clear-bottom cell culture plates in DMEM containing 1% dialysed FBS at a density of 10,000–15,000 cells per well. After incubation for 6 h, the plates were added with drug solutions prepared in DMEM containing 1% dialysed FBS for overnight incubation. On the day of assay, medium and drug solutions were removed and 20 μl per well of BrightGlo reagent (Promega) was added. The plates were further incubated for 20 min at room temperature and counted using the Wallac TriLux Microbeta counter (PerkinElmer). The results were analysed using GraphPad Prism 9.1. Each experiment was performed in triplicate and functional […] values were determined from the mean of three independent experiments.

CB1 = molecular target: T2, CB1 (Rattus norvegicus, UniProt P20272); assay: Radioligand competition binding with [3H]-CP-55,940, rat brain membranes; conditions: for LE: ligand efficiency; for LLE: lipophilic ligand efficiency; for Emax: maximal radioligand displacement, read-out: rCB1 binding Emax [SEM]; for Ki: [3H]-CP-55,940 competition, rat brain membranes
T2 construct: membrane preparations from rat brain (source of CB1); tissue Bioivt RAT00BRAINMZN; host or cells: rat brain
Experimental: The results were analyzed using nonlinear regression to determine the IC50 and Ki values for each ligand (Prism by GraphPad Software, Inc., San Diego, CA). The Ki values are expressed as the mean of two to three experiments each performed in triplicate.

hCB1 [5] = molecular target: T1, hCB1; assay: Lance Ultra cAMP accumulation assay (inhibition of forskolin-stimulated cAMP), CHO cells; assay type: cell-based; parameters: expressed in transfected cells; conditions: for Emax: CHO, read-out: hCB1 Lance Ultra cAMP Emax [95% CI]
Experimental: The inhibition of forskolin-stimulated cAMP accumulation assays was carried out using PerkinElmer’s Lance Ultra cAMP kit following the manufacturer’s protocol. In brief, CHO cells stably expressing human CB1R were harvested by incubation with Versene (ThermoFisher Scientific, Waltham, MA) for 10 min, washed once with Hank’s Balanced Salt Solution, and resuspended in stimulation buffer at ~200 cells/μL density. The ligands at eight different concentrations (0.001–10,000 nM) in stimulation buffer (5 μL) containing forskolin (2 μM final concentration) were added to a 384-well plate followed by the cell suspension (5 μL; ~1000 cells/well). The plate was incubated for 30 min at room temperature. Eu-cAMP tracer (5 μL) and Ulight-anti-cAMP (5 μL) working solutions were then added to each well, and the plate was incubated at room temperature for an additional 60 min. Results were measured on a Perkin-Elmer EnVision plate reader. The EC50 values were determined by nonlinear regression analysis using Prism software (GraphPad Software, Inc., San Diego, CA) and are expressed as the mean of three experiments, each performed in triplicate.

hCB2 [6] = molecular target: T3, hCB2 (Homo sapiens, UniProt P34972); assay: Tango β-arrestin-2 recruitment assay, HTLA cells; assay type: cell-based; parameters: expressed in transfected cells; host or cells: HTLA (transient); conditions: for Emax: HTLA, read-out: hCB2 Tango ß-arrestin recruitment Emax [95% CI]
Experimental: as §1

hCB2 [7] = molecular target: T3, hCB2; assay: TRUPATH BRET2 GoA dissociation assay, HEK293T; assay type: cell-based; parameters: expressed in transfected cells; host or cells: HEK293T (transient); conditions: HEK-293T, read-out: hCB2 BRET2 + GoA Emax [95% CI]
Experimental: […]. GoA dissociation BRET2 assays were performed as previously described with minor modifications. In brief, HEK293T cells were co-transfected overnight with human CB2 receptor, GαoA-Rluc, Gβ3, and Gγ9-GFP2 constructs. After 18–24 hours, the transfected cells were seeded into poly-L-lysine-coated 384-well white clear-bottom cell culture plates at a density of 15,000–20,000 cells and incubated with DMEM containing 1% dialyzed FBS, 100 U mL−1 of penicillin and 100 μg ml−1 of streptomycin for another 24 hours. The next day, the medium was aspirated and washed once with 20 μL of assay buffer (1× HBSS, 20 mM HEPES, 0.1% BSA, pH 7.4). Then, 20 μL of drug buffer containing coelenterazine 400a (Nanolight Technology) at 5 μM final concentration was added to each well and incubated for 5 minutes, followed by the addition of 10 μL of 3X designated drug buffer for 5 minutes. Then, 10 μL of 4X final concentrations of ligands were added for 5 minutes. […] BRET ratio was computed as the ratio of the GFP2 emission to RLuc8 emission. […] Each experiment was performed in triplicate and functional IC50 values were determined from the mean of four independent experiments.

C56BL/6 mice [8] = assay: Open field test of hypolocomotion; assay type: in vivo, mouse; conditions: for motor effect versus vehicle at analgesic doses: open field and rotarod tests
Experimental: Thirty minutes after i.p. injection, mice were placed in the center of a round open-field (2 feet diameter) and their exploratory behavior recorded over the next 15 minutes. Distance traveled was used to represent open field behavior.

T1 sequence (P21554 whole entry): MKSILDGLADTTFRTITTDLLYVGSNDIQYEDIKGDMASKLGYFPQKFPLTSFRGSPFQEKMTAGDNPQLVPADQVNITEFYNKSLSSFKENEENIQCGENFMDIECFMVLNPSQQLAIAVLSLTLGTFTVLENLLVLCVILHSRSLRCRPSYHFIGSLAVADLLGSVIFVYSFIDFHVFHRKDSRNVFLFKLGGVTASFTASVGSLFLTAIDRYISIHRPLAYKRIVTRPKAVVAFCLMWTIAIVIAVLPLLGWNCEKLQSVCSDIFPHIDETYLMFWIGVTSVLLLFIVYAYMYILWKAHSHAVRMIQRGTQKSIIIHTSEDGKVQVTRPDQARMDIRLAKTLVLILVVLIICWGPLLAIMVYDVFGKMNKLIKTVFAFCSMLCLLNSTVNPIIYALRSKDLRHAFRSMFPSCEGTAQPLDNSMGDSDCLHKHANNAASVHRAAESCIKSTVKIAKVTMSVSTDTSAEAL
T3 sequence (P34972 whole entry): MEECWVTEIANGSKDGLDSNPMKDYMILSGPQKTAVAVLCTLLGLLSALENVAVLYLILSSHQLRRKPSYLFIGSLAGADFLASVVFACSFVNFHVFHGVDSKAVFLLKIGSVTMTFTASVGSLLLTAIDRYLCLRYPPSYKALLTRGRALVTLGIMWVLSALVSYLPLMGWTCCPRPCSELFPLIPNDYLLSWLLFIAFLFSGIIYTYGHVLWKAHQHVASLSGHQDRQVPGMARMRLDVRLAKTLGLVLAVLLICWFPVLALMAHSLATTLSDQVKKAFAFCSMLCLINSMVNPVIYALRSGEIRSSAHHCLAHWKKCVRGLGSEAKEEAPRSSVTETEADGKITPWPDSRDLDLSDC
T2 sequence (P20272 whole entry): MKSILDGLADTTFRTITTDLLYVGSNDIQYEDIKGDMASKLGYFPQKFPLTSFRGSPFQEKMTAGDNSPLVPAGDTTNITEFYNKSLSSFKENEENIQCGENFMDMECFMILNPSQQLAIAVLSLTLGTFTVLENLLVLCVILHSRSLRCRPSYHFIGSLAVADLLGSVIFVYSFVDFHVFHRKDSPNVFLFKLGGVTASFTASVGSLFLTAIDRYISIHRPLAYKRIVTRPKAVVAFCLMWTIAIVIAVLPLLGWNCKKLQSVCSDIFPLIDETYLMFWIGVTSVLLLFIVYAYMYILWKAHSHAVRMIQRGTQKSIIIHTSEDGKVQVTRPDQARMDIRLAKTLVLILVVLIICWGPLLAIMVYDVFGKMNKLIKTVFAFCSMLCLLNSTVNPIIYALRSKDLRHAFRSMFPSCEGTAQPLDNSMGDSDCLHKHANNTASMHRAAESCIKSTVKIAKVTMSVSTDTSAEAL

| SMILES | effect on SNI-induced cold allodynia (number of paw withdrawals) (C56BL/6 mice [1]) | cataleptic behavior (C56BL/6 mice [2]) | concentration window between anti-allodynia or analgesia versus catalepsy and sedation, maximum (C56BL/6 mice [2]) | concentration window between anti-allodynia or analgesia versus catalepsy and sedation, typical (C56BL/6 mice [2]; mouse, in vivo) | dose at which catalepsy was recorded (C56BL/6 mice [2]; mouse, in vivo) | tail flick latency of co-injection with morphine (3.0 mg/kg, i.p.) versus morphine alone (C56BL/6 mice [3]) | analgesic effect under CB1R knockout or AM251 (5.0 mg/kg) pre-treatment (C56BL/6 mice [3]) | lowest dose with significant analgesia (latencies above baseline) (C56BL/6 mice [3]) | EC50 (hCB1 [4]) | Emax (hCB1 [4]) | LE (CB1) | LLE (CB1) | Emax (CB1) | Ki (CB1; rCB1 binding Ki [95% CI]) | EC50 (hCB1 [5]) | Emax (hCB1 [5]) | EC50 (hCB2 [6]) | Emax (hCB2 [6]) | Emax (hCB2 [7]) | motor effect versus vehicle at analgesic doses (C56BL/6 mice [8]) | further results |
| --- | --- | --- | --- | --- | --- | --- | --- | --- | --- | --- | --- | --- | --- | --- | --- | --- | --- | --- | --- | --- | --- |
| COC(=O)C(C)(NC(=O)c1cc(C)n(-c2cccc(C(F)(F)F)c2)n1)c1cccs1 (stereo not shown) [‘4042] | strongly reduced | did not induce cataleptic behavior | up to a twenty-fold | five- to ten-fold | > 1.0 mg/kg | significantly longer tail flick latencies | completely blocked | 0.1 mg/kg | 10.7 nM | 102% | 0.41 | 4.6 | 99% | 1.9 nM and 1.86 nM | 3.3 nM | 78% | 33.9 nM | 28% | 29% | no significant differences | window between analgesia and both sedation and catalepsy (C56BL/6 mice [2]; typical): 5–10 fold; decrease of analgesic effects by CB2R knockout or SR-144528 (1.0 mg/kg) (C56BL/6 mice [3]; tail flick or Hargreaves assays): neither |
| COC(=O)[C@@](C)(NC(=O)c1cc(C)n(-c2cccc(C(F)(F)F)c2)n1)c1cccs1 [‘1350] | strongly reduced | did not induce cataleptic behavior | up to a twenty-fold | five- to ten-fold | > 1.0 mg/kg and 1 mg/kg | significantly longer tail flick latencies | completely blocked | 0.1 mg/kg | – | – | – | – | 106% | 0.95 nM | 1.6 nM | 77% | – | – | – | – | dose with significant anti-allodynia (C56BL/6 mice [1]; acetone test for cold pain): 0.05 mg/kg; window between anti-allodynia and catalepsy (C56BL/6 mice [2]; tail-flick and hot-plate, 0.1 mg/kg vs 1 mg/kg highest tested dose): at least a ten-fold; Ki (CB1; rCB1 binding pKi [95% CI]): 1 nM; hCB1 Lance Ultra cAMP Emax [95% CI] (hCB1 [5]): 78%; dose showing locomotor deficits (C56BL/6 mice [8]; open field test): 0.2 mg/kg |
| CCCCCCC(C)(C)c1ccc([C@@H]2C[C@H](O)CC[C@H]2CCCO)c(O)c1 [CP-55,940, reference compound] | strongly reduced | – | – | – | – | – | – | – | – | 100% | – | – | – | – | – | 85% | – | 100% | 99% | caused motor impairment in both the rotarod and open field tests | dose at which catalepsy was recorded (C56BL/6 mice [2]; C56BL/6, mouse, in vivo, intraperitoneal): 0.2 mg/kg; window between analgesia and catalepsy (C56BL/6 mice [2]; mouse, in vivo): no window; dose with increased latencies (C56BL/6 mice [3]; Hargreaves test): 0.2 mg/kg; dose with increased latencies (C56BL/6 mice [3]; tail flick test): 0.5 mg/kg |
| COC(=O)C(NC(=O)c1cc(C)n(-c2cccc(C(F)(F)F)c2)n1)c1cccs1 (stereo not shown) [‘60154] | – | – | – | – | – | – | – | – | 794 nM | 39% | 0.36 | 3.5 | 110% | 44.3 nM | 316 nM | 67% | 3340 nM | 21% | 31% | – | Ki (CB1; rCB1 binding pKi [95% CI]): 39.8 nM |
